From patent publication US9259006B2, “Antimicrobial compositions and methods of use thereof” (priority 2008, dated 2016)
Like-named read-outs stand apart in the source and are kept apart here.

Columns and labels:
E. Coli (ATCC 43888) = format: cell-based; conditions: inoculum 6.87-log, about 33° F.
[1] = Hypochlorous acid stability and shelf life, DPD assay (Table 10, FIG. 1); format: physicochemical
[2] = Spinach leaf 25 grams, 180 min.

Compound | Antimicrobial activity (log reduction) of single components (E. Coli (ATCC 43888); Spinach leaf 25 grams, 2 min.) [log] | Antimicrobial activity (log reduction) of single components (E. Coli (ATCC 43888); Spinach leaf 25 grams, 30 min.) [log] | Antimicrobial activity (log reduction) of single components (E. Coli (ATCC 43888); [2]) [log] | Antimicrobial activity (log reduction) of single components (E. Coli (ATCC 43888); Strawberry 25 grams, 2 min.) [log] | Antimicrobial activity (log reduction) of single components (E. Coli (ATCC 43888); Strawberry 25 grams, 30 min.) [log] | Antimicrobial activity (log reduction) of single components (E. Coli (ATCC 43888); Strawberry 25 grams, 180 min.) [log] | level of hypochlorous acid in solution ([1]; in the absence of diol at pH 7) [%] | level of hypochlorous acid in solution ([1]; in the presence of diol at pH 4, at about 4 hours) [%]
BrBr [Bromine (0.08 wgt. %), Bromine] | 2.11 | 3.28 | 4.44 | 2.32 | 3.32 | 4.89 | – | –
OCl [hypochlorous acid] | – | – | – | – | – | – | 100 | 0
O=[O+][O-] [Ozone (0.001 wgt. %), Ozone] | 2.34 | 2.58 | 3.63 | 2.89 | 3.12 | 4.12 | – | –
Octyl Phenol Ethoxylate [Octyl Phenol Ethoxylate (0.5 wgt. %)] | 1.15 | 2.47 | 3.11 | 1.05 | 2.78 | 3.9 | – | –
